# Where two headings read alike, the source gives them in different places.
# How the values were obtained:
# STAT4 = target: T1, STAT4 (Homo sapiens, UniProt Q14765); test: Fluorescence polarization (FP) binding assay, STAT4
# T1 sequence (Q14765 1-748): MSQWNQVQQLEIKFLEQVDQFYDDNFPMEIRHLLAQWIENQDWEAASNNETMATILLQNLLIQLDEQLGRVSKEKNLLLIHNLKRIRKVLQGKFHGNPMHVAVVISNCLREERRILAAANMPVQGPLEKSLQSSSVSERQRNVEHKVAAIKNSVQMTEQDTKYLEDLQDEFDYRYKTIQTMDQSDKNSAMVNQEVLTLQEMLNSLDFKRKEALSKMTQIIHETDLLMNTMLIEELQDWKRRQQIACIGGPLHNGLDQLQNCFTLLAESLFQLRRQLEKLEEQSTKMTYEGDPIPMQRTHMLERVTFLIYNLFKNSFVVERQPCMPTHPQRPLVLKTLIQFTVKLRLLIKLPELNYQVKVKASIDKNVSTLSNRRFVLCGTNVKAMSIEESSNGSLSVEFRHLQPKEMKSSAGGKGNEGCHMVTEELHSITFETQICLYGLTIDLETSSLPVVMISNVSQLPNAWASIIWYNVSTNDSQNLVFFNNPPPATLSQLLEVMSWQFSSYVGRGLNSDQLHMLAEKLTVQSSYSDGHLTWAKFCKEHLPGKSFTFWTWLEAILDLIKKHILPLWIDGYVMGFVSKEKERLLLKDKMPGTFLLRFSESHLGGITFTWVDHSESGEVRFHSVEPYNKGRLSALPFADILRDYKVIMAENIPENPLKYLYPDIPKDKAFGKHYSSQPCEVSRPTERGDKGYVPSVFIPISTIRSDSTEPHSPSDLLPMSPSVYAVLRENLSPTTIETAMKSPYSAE
# Method: Ki values were calculated from IC50 values using the published equation.[2] […]
# Table S2: Activities of 12 against STAT5 proteins in FP assays.
# Fluorescence polarization assays
# Fluorescence polarization assays were essentially carried out as previously described.[1] These assays quantitate to which extent a test compound is able to interfere with binding between a STAT protein and a fluorescein-labeled phosphotyrosine-containing peptide, which is known to bind to the SH2 domain of the respective STAT protein. The following protein […]
# concentrations were used: 100 nM for STAT1, 150 nM for STAT3, 30 nM for STAT4, 180 nM for STAT5a, 90 nM for STAT5b and 105 nM for STAT6. All peptides were used at a concentration of 10 nM. The following peptides were used: 5 -carboxyfluorescein -GpYDKPHVL for STAT1; 5-carboxyfluorescein -GpYLPQTV-NH2 for STAT3; 5-carboxyfluorescein-GpYLPQNID-OH for STAT4; 5-carboxyfluorescein-GpYLVLDKW for STAT5a/b, and 5-carboxyfluorescein-GpYVPWQDLI-OH for STAT6. As a buffer system, 10 mM Tris (pH 8.0), 50 mM NaCl, 1 mM EDTA, 1 mM DTT, 0.1 % Nonidet P-40 substitute, and 2 % DMSO in water was used. All compounds tested were incubated for 1 h with the protein. Subsequently, the fluorescein-labeled peptide was added and the fluorescence polarization was measured with an Infinite F500 plate reader (Tecan) after another hour. IC50 values were converted to Ki-values using the published equation.[2] […]
# 3:2 solution was added . The solution was degassed by applying ultrasonic under vacuum for one minute four times. 14 mg of Pd(PPh3)4 (12 µmol, 5 mol %) were added and the solution was refluxed overnight. After cooling down, the mixture was extracted with ethyl acetate, washed with brine and dried over Na2SO4. The crude product was purified by flash column […]
# Method 2: Synthesis of dibenzylphosphate esters
# The corresponding phenol (1 eq.) was dissolved in 10 ml/mmol MeCN or DMF and CCl4 (5 eq.), DIPEA (2 eq.) and DMAP (0.1 eq.) were added. After cooling down to 0°C, dibenzyl phosphite (1.5 eq.) was added dropwise and stirring was continued at the same temperature. […]
SMILES,IC50 (STAT4; FP assay) [µM],"Ki (STAT4; FP assay, Ki calculated from IC50 (n=3), read-out: STAT4 Ki) [µM]",Ki (STAT4) [µM],melting point [°C]
COc1cc(-c2cc(-c3cc(F)c(F)c(F)c3)cc(C(F)P(=O)(O)O)c2)cc(OC)c1OC (stereo not shown) [compound 12],99.3 ± 8,49.2 ± 4,–,–
COc1cc(-c2cc(OP(=O)(O)O)cc(-c3cc(F)c(F)c(F)c3)c2)cc(OC)c1OC [6 b],–,–,39.7 ± 3,> 260

# From article PMC9303812, “Asymmetrically Substituted m‐Terphenyl Phosphates Inhibit the Transcription Factor STAT5a” (Chembiochem, 2021)
